26 compounds from patent US20160297833A1, “THIENOPYRIMIDINES AS MKNK1 AND MKNK2 INHIBITORS” (BAYER PHARMA AKTIENGESELLSCHAFT, priority 2013, published 2016) can be followed below.

pIC50: −log10 of the molar value.

In one assay the target is T1, human full-length MKNK1 (Homo sapiens, UniProt Q9BUB5, T385D).
T1 construct: GST (N); purchased Carna Biosciences 02-145; host or cells: insect cells (baculovirus expression system)
T1 sequence (Q9BUB5 1-424 isoform Q9BUB5-2 T344D): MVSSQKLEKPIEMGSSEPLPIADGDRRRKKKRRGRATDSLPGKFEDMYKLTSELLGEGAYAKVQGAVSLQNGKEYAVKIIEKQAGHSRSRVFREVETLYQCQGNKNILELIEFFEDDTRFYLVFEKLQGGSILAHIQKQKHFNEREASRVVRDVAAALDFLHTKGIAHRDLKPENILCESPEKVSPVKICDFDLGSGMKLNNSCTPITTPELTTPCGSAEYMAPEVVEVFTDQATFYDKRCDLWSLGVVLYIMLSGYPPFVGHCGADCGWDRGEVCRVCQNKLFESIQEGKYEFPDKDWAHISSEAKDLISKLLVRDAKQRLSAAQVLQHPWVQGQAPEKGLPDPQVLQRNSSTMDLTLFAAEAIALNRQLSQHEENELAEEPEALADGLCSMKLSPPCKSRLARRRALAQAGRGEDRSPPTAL
The assay is described as follows: MKNK1 kinase high ATP assay (TR-FRET). The assay is classed as biochemical. To be noted: Table 1; MKNK1 kinase high ATP assay, 2 mM ATP; read-out: MKNK1 IC50. An outline of the steps:
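Full-length human MKNK1 (T385D) preincubated 15 min at 22 °C with compound in HEPES pH 7.5/MgCl2/DTT buffer; reaction with 2 mM ATP (final) and 0.06 μM biotinylated peptide (final), 30 min at 22 °C.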
As to `CN(C)C(=O)[C@H]1CCc2c(sc3ncnc(Nc4cc5cn[nH]c5cc4OC4CCCCC4)c23)C1` [Example 202, (7S)-4-{[6-(Cyclohexyloxy)-1H-indazol-5-yl]amino}-N,N-dimethyl-5,6,7,8-tetrahydro[1]benzothieno[2,3-d]pyrimidine-7-carboxamide], the pIC50 was 9.00.

Consider `COc1cc2[nH]ncc2cc1Nc1ncnc2sc3c(c12)CC[C@H](C(=O)N1CC2CC2C1)C3` (stereo partly drawn) [Example 209, 3-Azabicyclo[3.1.0]hex-3-yl{(7S)-4-[(6-methoxy-1H-indazol-5-yl)amino]-5,6,7,8-tetrahydro[1]benzothieno[2,3-d]pyrimidin-7-yl}methanone], for which the pIC50 is 9.30.

Regarding `C[C@@H]1CN(C(=O)[C@H]2CCc3c(sc4ncnc(Nc5cc6cn[nH]c6cc5F)c34)C2)C[C@@H](C)O1` [Example 224, [(2R,6R)-2,6-Dimethylmorpholin-4-yl]{(7S)-4-[(6-fluoro-1H-indazol-5-yl)amino]-5,6,7,8-tetrahydro[1]benzothieno[2,3-d]pyrimidin-7-yl}methanone], the pIC50 is 8.43.

On to `CC(C)N(C(=O)[C@H]1CCc2c(sc3ncnc(Nc4ccc5[nH]ncc5c4)c23)C1)C(C)C` [Example 127, (7S)-4-(1H-Indazol-5-ylamino)-N,N-di(propan-2-yl)-5,6,7,8-tetrahydro[1]benzothieno[2,3-d]pyrimidine-7-carboxamide], for which the pIC50 is 8.19.

Turning to `C[C@@H]1CN(C(=O)[C@H]2CCc3c(sc4ncnc(Nc5ccc6[nH]ncc6c5)c34)C2)C[C@H](C)O1` [Example 162, [(2R,6S)-2,6-dimethylmorpholin-4-yl][(7S)-4-(1H-indazol-5-ylamino)-5,6,7,8-tetrahydro[1]benzothieno[2,3-d]pyrimidin-7-yl]methanone], the pIC50 was 7.94.

Regarding `CCOc1cc2[nH]ncc2cc1Nc1ncnc2sc3c(c12)CC[C@H](C(=O)N1CCCC1)C3` [Example 67, {(7S)-4-[(6-Ethoxy-1H-indazol-5-yl)amino]-5,6,7,8-tetrahydro[1]benzothieno[2,3-d]pyrimidin-7-yl}(pyrrolidin-1-yl)methanone], the negative-log IC50 (pIC50) was 9.52.

For the compound `O=C([C@H]1CCc2c(sc3ncnc(Nc4ccc5[nH]ncc5c4)c23)C1)N1CCOCC1` [Example 9, [(7S)-4-(1H-Indazol-5-ylamino)-5,6,7,8-tetrahydro[1]benzothieno[2,3-d]pyrimidin-7-yl](morpholin-4-yl)methanone], the pIC50 is 7.59.

Take `COc1cc2[nH]ncc2cc1Nc1ncnc2sc3c(c12)CC[C@H](C(=O)N(C)C)C3` [Example 20, (7S)-4-[(6-Methoxy-1H-indazol-5-yl)amino]-N,N-dimethyl-5,6,7,8-tetrahydro[1]benzothieno[2,3-d]pyrimidine-7-carboxamide]: the pIC50 was 9.00.

Consider `COc1cc2[nH]ncc2cc1Nc1ncnc2sc3c(c12)CC[C@H](C(=O)N1CC(F)C1)C3` [Example 163, (3-fluoroazetidin-1-yl){(7S)-4-[(6-methoxy-1H-indazol-5-yl)amino]-5,6,7,8-tetrahydro[1]benzothieno[2,3-d]pyrimidin-7-yl}methanone], for which the pIC50 is 9.22.

Turning to `CN(C)C(=O)[C@H]1CCc2c(sc3ncnc(Nc4cc5cn[nH]c5cc4OCCNC(=O)C(C)(C)C)c23)C1` [Example 257, (7S)-4-[(6-{2-[(2,2-Dimethylpropanoyl)amino]ethoxy}-1H-indazol-5-yl)amino]-N, N-dimethyl-5,6,7,8-tetrahydro[1]benzothieno[2,3-d]pyrimidine-7-carboxamide], the pIC50 was 8.62.

Consider `C[C@H](CN)Oc1cc2[nH]ncc2cc1Nc1ncnc2sc3c(c12)CC[C@H](C(=O)N1CCOC[C@H]1C)C3` [Example 144, {(7S)-4-[(6-{[(2R)-1-Aminopropan-2-yl]oxy}-1H-indazol-5-yl)amino]-5,6,7,8-tetrahydro[1]benzothieno[2,3-d]pyrimidin-7-yl}[(3R)-3-methylmorpholin-4-yl]methanone], for which the pIC50 is 9.00.

As to `COc1cc2[nH]ncc2cc1Nc1ncnc2sc3c(c12)CC[C@H](C(=O)N1CC[C@@H](N(C)C)C1)C3` [Example 179, [(3R)-3-(Dimethylamino)pyrrolidin-1-yl]{(7S)-4-[(6-methoxy-1H-indazol-5-yl)amino]-5,6,7,8-tetrahydro[1]benzothieno[2,3-d]pyrimidin-7-yl}methanone], the negative logarithm of the IC50 (pIC50) is 9.40.

With `C[C@@H]1CN(C(=O)[C@H]2CCc3c(sc4ncnc(Nc5cc6cn[nH]c6cc5F)c34)C2)C[C@H](C)O1` [Example 221, [(2R,6S)-2,6-Dimethylmorpholin-4-yl]{(7S)-4-[(6-fluoro-1H-indazol-5-yl)amino]-5,6,7,8-tetrahydro[1]benzothieno[2,3-d]pyrimidin-7-yl}methanone], the pIC50 was 8.42.

On to `CN(C)C(=O)[C@H]1CCc2c(sc3ncnc(Nc4cc5cn[nH]c5cc4OCC4CCOCC4)c23)C1` [Example 201, (7S)—N,N-Dimethyl-4-{[6-(tetrahydro-2H-pyran-4-ylmethoxy)-1H-indazol-5-yl]amino}-5,6,7,8-tetrahydro[1]benzothieno[2,3-d]pyrimidine-7-carboxamide], for which the pIC50 is 7.63.

On to `COc1cc2[nH]ncc2cc1Nc1ncnc2sc3c(c12)CC[C@H](C(=O)N1CCC(N(C)CCN(C)C)CC1)C3` [Example 47, (4-{[2-(Dimethylamino)ethyl](methyl)amino}piperidin-1-yl){(7S)-4-[(6-methoxy-1H-indazol-5-yl)amino]-5,6,7,8-tetrahydro[1]benzothieno[2,3-d]pyrimidin-7-yl}methanone], for which the pIC50 is 9.30.

Take `O=C([C@H]1CCc2c(sc3ncnc(Nc4cc5cn[nH]c5cc4N4CCCC4)c23)C1)N1CCC1` [Example 195, Azetidin-1-yl[(7S)-4-{[6-(pyrrolidin-1-yl)-1H-indazol-5-yl]amino}-5,6,7,8-tetrahydro[1]benzothieno[2,3-d]pyrimidin-7-yl]methanone]: the pIC50 is 9.05.

As for `CCCOc1cc2[nH]ncc2cc1Nc1ncnc2sc3c(c12)CC[C@H](C(=O)N(C)C)C3` [Example 94, (7S)—N,N-Dimethyl-4-[(6-propoxy-1H-indazol-5-yl)amino]-5,6,7,8-tetrahydro[1]benzothieno[2,3-d]pyrimidine-7-carboxamide], the pIC50 was 8.32.

In the case of `O=C([C@H]1CCc2c(sc3ncnc(Nc4ccc5[nH]ncc5c4)c23)C1)N1C[C@H]2C[C@@H]1CO2` [Example 11, [(7S)-4-(1H-Indazol-5-ylamino)-5,6,7,8-tetrahydro[I]benzothieno[2,3-d]pyrimidin-7-yl][(1R,4R)-2-oxa-5-azabicyclo[2.2.1]hept-5-yl]methanone], the pIC50 is 8.40.

Turning to `COC(=O)NC[C@@H](C)Oc1cc2[nH]ncc2cc1Nc1ncnc2sc3c(c12)CC[C@H](C(=O)N(C)C)C3` [Example 264, Methyl {(2R)-2-[(5-{[(7S)-7-(dimethylcarbamoyl)-5,6,7,8-tetrahydro[1]benzothieno[2,3-d]pyrimidin-4-yl]amino}-1H-indazol-6-yl)oxy]propyl}carbamate], the pIC50 is 8.92.

As to `CN(C)C(=O)[C@H]1CCc2c(sc3ncnc(Nc4cc5cn[nH]c5cc4OCCCNC(=O)OC(C)(C)C)c23)C1` [Example 180, tert-Butyl {3-[(5-{[(7S)-7-(dimethylcarbamoyl)-5,6,7,8-tetrahydro[1]benzothieno[2,3-d]pyrimidin-4-yl]amino}-1H-indazol-6-yl)oxy]propyl}carbamate], the pIC50 is 9.40.

Consider `COc1cc2[nH]ncc2cc1Nc1ncnc2sc3c(c12)CC[C@@H](C(=O)N1CCC1)C3` [Example 22, Azetidin-1-yl{(7R)-4-[(6-methoxy-1H-indazol-5-yl)amino]-5,6,7,8-tetrahydro[1]benzothieno[2,3-d]pyrimidin-7-yl}methanone], for which the pIC50 is 7.67.

In the case of `CN(C)C1CCN(c2cc3[nH]ncc3cc2Nc2ncnc3sc4c(c23)CC[C@H](C(=O)N2CC3(COC3)C2)C4)CC1` [Example 166, [(7S)-4-({6-[4-(dimethylamino)piperidin-1-yl]-1H-indazol-5-yl}amino)-5,6,7,8-tetrahydro[1]benzothieno[2,3-d]pyrimidin-7-yl](2-oxa-6-azaspiro[3.3]hept-6-yl)methanone], the pIC50 was 7.69.

On to `C[C@@H]1COCCN1C(=O)[C@H]1CCc2c(sc3ncnc(Nc4cc5cn[nH]c5cc4Br)c23)C1` [Example 232, {(7S)-4-[(6-Bromo-1H-indazol-5-yl)amino]-5,6,7,8-tetrahydro[1]benzothieno[2,3-d]pyrimidin-7-yl}[(3R)-3-methylmorpholin-4-yl]methanone], for which the pIC50 was 8.24.

For the compound `C[C@@H]1CN(C(=O)[C@H]2CCc3c(sc4ncnc(Nc5cc6cn[nH]c6cc5OC5CN(C(=O)OC(C)(C)C)C5)c34)C2)C[C@H](C)O1` [Example 266, tert-Butyl 3-[(5-{[(7S)-7-{[(2R,6S)-2,6-dimethylmorpholin-4-yl]carbonyl}-5,6,7,8-tetrahydro[1]benzothieno[2,3-d]pyrimidin-4-yl]amino}-1H-indazol-6-yl)oxy]azetidine-1-carboxylate], the pIC50 is 9.05.

For the compound `CN(C)C(=O)[C@H]1CCc2c(sc3ncnc(Nc4cc5cn[nH]c5cc4N(C)CCC(C)(C)O)c23)C1` [Example 242, (7S)-4-({6-[(3-Hydroxy-3-methylbutyl)(methyl)amino]-1H-indazol-5-yl}amino)-N,N-dimethyl-5,6,7,8-tetrahydro[1]benzothieno[2,3-d]pyrimidine-7-carboxamide], the pIC50 is 7.69.

Staying with this assay, now noted: Table 3; example numbers of WO2013/174744(A1), not of this patent; pure enantiomer from chiral HPLC, absolute configuration at amide 'R or S'; read-out: MKNK1 IC50.
For the compound “[(7S)-4-(1H-Indazol-5-ylamino)-5,6,7,8-tetrahydro[1]benzothieno[2,3-d]pyrimidin-7-yl](morpholin-4-yl)methanone [Example 9]”, the pIC50 is 8.14.

The same assay, now with this note: Table 3; example numbers of WO2013/174744(A1), not of this patent; pure enantiomer from chiral HPLC, absolute configuration at amide 'S or R'; read-out: MKNK1 IC50.
For the compound “[(7S)-4-(1H-Indazol-5-ylamino)-5,6,7,8-tetrahydro[1]benzothieno[2,3-d]pyrimidin-7-yl](morpholin-4-yl)methanone [Example 9]”, the pIC50 was 8.74.

The assay is the same for the next values; noted with them: Table 3; example numbers of WO2013/174744(A1); ratio of the IC50 values of the two enantiomers.
On to “[(7S)-4-(1H-Indazol-5-ylamino)-5,6,7,8-tetrahydro[1]benzothieno[2,3-d]pyrimidin-7-yl](morpholin-4-yl)methanone [Example 9]”, for which the “Activity Ratio MKNK1” value was found to be 3.9.

As a reminder, the pIC50 is the IC50 on a negative log10 scale, so that one unit is a factor of ten.
